Reference: patent US7479377B2, “Genetic construct intracellular monitoring system” (DiscoveRx Corporation, priority 2001, dated 2009)
Peptide text beside a SMILES is read from it. * marks the point of attachment. Cbz = O=C(OCc1ccccc1)*

Key:
[1] = target: T1, human chemokine CCR3 receptor (Homo sapiens, UniProt P51677); assay: CCR3 activation leads to IkB-PL degradation in CHO-K1 cells; type: cell-based; conditions: CHO-K1 cells expressing CCR3, transfected with PCMV-IkB-PL; 30 min; FIG. 16
T1 sequence (P51677 1-355): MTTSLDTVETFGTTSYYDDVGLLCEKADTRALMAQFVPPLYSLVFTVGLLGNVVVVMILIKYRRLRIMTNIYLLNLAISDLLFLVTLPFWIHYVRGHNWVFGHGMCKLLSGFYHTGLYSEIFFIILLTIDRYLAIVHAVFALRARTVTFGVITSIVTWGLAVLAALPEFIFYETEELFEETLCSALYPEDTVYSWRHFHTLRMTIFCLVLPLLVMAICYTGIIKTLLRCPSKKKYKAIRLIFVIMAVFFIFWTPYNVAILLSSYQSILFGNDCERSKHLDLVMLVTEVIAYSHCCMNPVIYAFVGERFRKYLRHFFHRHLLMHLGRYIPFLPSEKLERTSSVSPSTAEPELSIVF
Procedure: CHO-K1 cells stably expressing human chemokine CCR3 receptor was obtained from Euroscreen. […] Cells were seeded in 6-well plates one day before transfection. PCMV-IkB-PL was transiently transfected into CHO MC4 cells using Fugene6 following manufacturer's protocol. […] (FIG. 16).

PL-PPARγ1 = assay: Proteosomal degradation of transiently expressed PL-PPAR (ED-EA complementation); type: cell-based, human; conditions: for Amount of PL-PPARγ1: MG132 20 μM
Text: pcDNA3.1-PL-PPAR construct was obtained in the two rounds of the cloning procedure. In the first round, the ED (55-mer) sequence was inserted into NheI and KpnI sites of the pcDNA3.1/zeo vector (Invitrogen). PPARg1 gene was obtained by PCR amplification of the human placenta cDNA library and in the second round of cloning was inserted into KpnI and NotI sites of the vector.
Proteosomal degradation of transiently expressed PL-PPAR protein was detected in NIH3T3, ECV304 and HeLa cells. Cells were transfected with pcDNA3.1-PL-PPAR and 24 hours after transfection medium was removed and cells were treated either with the vehicle (DMSO) or MG132 (proteosome inhibitor). Transfections were carried out in 6-well plates as described above. Cells were washed with PBS buffer, lysed in 480 uL of lysis buffer containing CHAPS (a mild detergent) and tested for ED-EA complementation in triplicates. Thirty microliters of the cell lysates were placed in the wells of 384-well plates. After that, 10 uL of EA solution were added and reaction of complementation was carried out for one hour at room temperature. Fifteen microliters of chemiluminescent substrate (0.4 mM Galacton-Star (Applied Biosystems, Bedford, Mass.) and 2 mg/ml Emerald II substrate (Applied Biosystems, Bedford, Mass.)) were added to the wells and the chemiluminescent signals were read using Chemiluminescent reader (Packard LumiCount, Packard Biosystems) (FIGS. 10A, 10B and 10C).
PL-PPAR expression levels were tested in the presence of increasing concentrations of MG132 (FIG. 11). The experiment was done as described above, except that indicated concentrations of MG132 were employed.

[2] = tested on: Hela cells stably expressing IkB-PL; assay: Cell Titer-Glo cell viability assay of Hela-IkB cells with EGF; type: cell-based; conditions: 0.5% FBS, serial dosage of rhEGF, 72 hours, FIG. 17
Procedure: Hela cells stably expressing IkB-PL were used. To confirm the cells response to EGF, the cell viability assay was performed. Hela-IkB cells were seeded in DMEM with 0.5% FBS in 96 well plate with a density of 5000 cells per well, exposing to a serial dosage of rhEGF. 72 hours later, cell viability assay was performed using the Cell Titer-Glo luminescence Cell Viability assay kit (Promega). […] (FIG. 17).

endogenous IL-1 receptor = target: T2, endogenous IL-1 receptor (Homo sapiens, UniProt P14778); assay: IL-1-induced IκB-ED degradation in HeLa cells; type: cell-based; conditions: IL-1 at various concentrations for 30 min
T2 construct: endogenous in cells; host or cells: HeLa cells transiently transfected with pCMV-IkB-ED or pCMV-IkB M-ED as reporter
T2 sequence (P14778 18-569): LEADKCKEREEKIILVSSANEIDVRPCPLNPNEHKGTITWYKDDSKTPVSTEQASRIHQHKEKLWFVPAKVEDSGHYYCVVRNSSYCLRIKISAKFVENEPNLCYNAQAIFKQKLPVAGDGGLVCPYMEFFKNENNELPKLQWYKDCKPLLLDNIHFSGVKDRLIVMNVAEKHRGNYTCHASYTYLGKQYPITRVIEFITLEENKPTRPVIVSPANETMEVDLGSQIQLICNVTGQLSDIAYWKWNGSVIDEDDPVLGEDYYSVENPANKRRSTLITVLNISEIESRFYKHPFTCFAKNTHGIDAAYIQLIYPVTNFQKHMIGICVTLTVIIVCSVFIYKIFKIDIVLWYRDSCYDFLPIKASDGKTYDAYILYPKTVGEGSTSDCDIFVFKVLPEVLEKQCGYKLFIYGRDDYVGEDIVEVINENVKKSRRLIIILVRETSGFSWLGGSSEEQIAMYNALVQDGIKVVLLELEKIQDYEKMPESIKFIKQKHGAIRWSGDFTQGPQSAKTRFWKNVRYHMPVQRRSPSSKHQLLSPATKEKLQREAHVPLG
T2 sequence (Q9NPH3 21-570 partner): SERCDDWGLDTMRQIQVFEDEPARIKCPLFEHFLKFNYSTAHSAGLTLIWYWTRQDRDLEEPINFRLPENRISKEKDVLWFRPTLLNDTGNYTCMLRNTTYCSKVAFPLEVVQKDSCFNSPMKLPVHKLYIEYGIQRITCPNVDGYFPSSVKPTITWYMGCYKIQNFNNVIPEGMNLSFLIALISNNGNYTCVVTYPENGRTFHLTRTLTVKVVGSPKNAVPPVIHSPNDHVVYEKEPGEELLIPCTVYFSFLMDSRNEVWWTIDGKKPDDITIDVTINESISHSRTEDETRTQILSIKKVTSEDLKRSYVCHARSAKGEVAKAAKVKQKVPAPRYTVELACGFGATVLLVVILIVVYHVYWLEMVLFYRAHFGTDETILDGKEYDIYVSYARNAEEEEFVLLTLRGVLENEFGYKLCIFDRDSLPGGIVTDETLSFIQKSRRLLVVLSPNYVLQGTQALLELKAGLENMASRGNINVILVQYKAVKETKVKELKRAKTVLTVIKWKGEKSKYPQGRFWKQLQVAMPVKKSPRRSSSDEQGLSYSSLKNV
Procedure: (§1) HeLa cells were seeded into 24 well plate 24 hr before transfection. 0.25 μg DNA was transfected into each well using Fugene6 (Roche) following manufacture's protocol. 24 hr after transfection, cells were subjected to treatment of TNFα (Sigma) at various concentrations for 30 min. Then the culture medium was removed, and cells were lysed in 90 μl of cell lysis buffer. […] Assay was performed in three replicates. The plate was incubated at room temperature for 30 min before addition of 15 μl chemiluminescence substrate. Plate was read 30 min after substrate addition. The untreated cells were normalized to 100% activity. […] In addition, the IκB-ED degradation was specifically linked to the upstream component activation. Also confirmed was that the IκB-ED degradation was dependent on IκB phosporylation at 32 and 36 residues, the same way as un-tagged IκB.
It has been reported that IL-1 activation of cells results in NF-κB pathway activation through the induced degradation of IκB. To confirm that the ED labeled IκB in cells was able to monitor IL-1 pathway activation, HeLa cells was transiently transfected with pCMV- IκB -ED or pCMV- IκB M-ED the same way as described above in 24 well plates. Cells were then treated with IL-1 (Sigma) at various concentrations for 30 min then assayed for ED activity.

IκB-ED = assay: TNFα-induced IκB-ED degradation in HeLa cells (ED/EA complementation, chemiluminescence); type: cell-based; conditions: TNFα at various concentrations for 30 min
Procedure: For transient transfection, cells were seeded into 6 well plate one day before experiment. For each well, 3 μl of Fugene 6 (Roche, Ind.) was diluted into 100_μl of serum free medium, and then 1_μg of plasmid DNA was added. The mixture was incubated at room temperature for 15 min before addition into wells dropwise. The plate was then incubated at 37° C. till the assay.
as §1

[3] = HeLa cells transfected with pCMV-IκB M-ED
[4] = HeLa cells transfected with pCMV-IκB-ED

eotaxin was tested, and the “IkB-PL degradation upon CCR3 activation” value [1] was “activation of the chemokine receptor CCR3 leading to IkB-PL degradation”.

In the case of CC(C)C[C@@H](C=O)NC(=O)[C@H](CC(C)C)NC(=O)[C@H](CC(C)C)NC(=O)OCc1ccccc1 [MG132] (Cbz-Leu-Leu-Leu-aldehyde), the “Amount of PL-PPARγ1” value (PL-PPARγ1; ECV304 cells, FIG. 10B) is reported as “enhancement of the amount of PL-PPARγ1”, the “Amount of PL-PPARγ1” value (PL-PPARγ1; HeLa cells, FIG. 10C) is reported as “enhancement of the amount of PL-PPARγ1” and the “Amount of PL-PPARγ1” value (PL-PPARγ1; NIH3T3 cells, FIG. 10A) is reported as “enhancement of the amount of PL-PPARγ1”. The “PL-PPAR expression level with increasing concentrations of MG132” value (PL-PPARγ1; increasing concentrations of MG132, FIG. 11) was “Dose-Dependent Increase”.

With “EGF (NSDSECPLSHDGYCLHDGVCMYIEALDKYACNCVVGYIGERCQYRDLKWWELR)” the Viable cell numbers [2] was “responded to the EGF induction in a dosage dependent manner”.

For IL-1, the “Degradation of mutant IκB M-ED” value (endogenous IL-1 receptor; [3]) was “resistant to IL-1 induced degradation” and the IκB-ED activity (endogenous IL-1 receptor; [4]) was “decreased upon IL-1 treatment in a dose dependent manner”.

TNFα was tested, and the “ED activity of mutant IκB M-ED” value (IκB-ED; [3]) was “did not show a dose dependent decrease of ED activity” and the “ED activity of IκB-ED (degradation of wild type IκB)” value (IκB-ED; [4]) was “decrease the ED activity in a dose dependent manner”.
